Converted amounts (≈) assume the structure as drawn. The source made the active and inactive calls. No cut-off for these calls is given here.
Tests used:
Citrobacter koseri [1] = assay: Antibacterial activity against Citrobacter koseri by CLSI M7-A7 method; type: functional
Klebsiella oxytoca [2] = assay: Antibacterial activity against Klebsiella oxytoca by CLSI M7-A7 method; type: functional
Legionella pneumophila = assay: Antibacterial activity against Legionella pneumophila by CLSI M7-A7 method; type: functional
Moraxella catarrhalis = assay: Antibacterial activity against Moraxella catarrhalis by CLSI M7-A7 method; type: functional
Morganella morganii [3] = assay: Antibacterial activity against Morganella morganii by CLSI M7-A7 method; type: functional
Bacteroides fragilis [4] = assay: Antibacterial activity against Bacteroides fragilis by CLSI M11-A7 method; type: functional
Clostridium perfringens [5] = assay: Antibacterial activity against Clostridium perfringens by CLSI M11-A7 method; type: functional
Fusobacterium sp. [6] = assay: Antibacterial activity against Fusobacterium sp. by CLSI M11-A7 method; type: functional
Peptostreptococcus sp. [7] = assay: Antibacterial activity against Peptostreptococcus sp. by CLSI M11-A7 method; type: functional
Prevotella sp. [8] = assay: Antibacterial activity against Prevotella sp. by CLSI M11-A7 method; type: functional
Cutibacterium acnes [9] = assay: Antibacterial activity against Propionibacterium acnes by CLSI M11-A7 method; type: functional
Bacteroides fragilis [10] = assay: Antibacterial activity against Bacteroides fragilis assessed as percent susceptible isolates by CLSI M11-A7 method; type: functional
Fusobacterium sp. [11] = assay: Antibacterial activity against Fusobacterium sp. assessed as percent susceptible isolates by CLSI M11-A7 method; type: functional
Peptostreptococcus sp. [12] = assay: Antibacterial activity against Peptostreptococcus sp. assessed as percent susceptible isolates by CLSI M11-A7 method; type: functional
Prevotella sp. [13] = assay: Antibacterial activity against Prevotella sp. assessed as percent susceptible isolates by CLSI M11-A7 method; type: functional
Cutibacterium acnes [14] = assay: Antibacterial activity against Propionibacterium acnes assessed as percent susceptible isolates by CLSI M11-A7 method; type: functional
Staphylococcus aureus [15] = assay: Antibacterial activity against ciprofloxacin-susceptible and methicillin-resistant Staphylococcus aureus assessed as percent susceptible isolates by CLSI M100-S18 method; type: functional
Staphylococcus aureus [16] = assay: Antibacterial activity against non-ciprofloxacin-susceptible and methicillin-susceptible Staphylococcus aureus assessed as percent susceptible isolates by CLSI M100-S18 method; type: functional
[17] = tested on: Staphylococcus epidermidis; assay: Antibacterial activity against ciprofloxacin-susceptible and methicillin-resistant Staphylococcus epidermidis assessed as percent susceptible isolates by CLSI M100-S18 method; type: functional
[18] = tested on: Staphylococcus epidermidis; assay: Antibacterial activity against non-ciprofloxacin-susceptible and methicillin-susceptible Staphylococcus epidermidis assessed as percent susceptible isolates by CLSI M100-S18 method; type: functional
[19] = tested on: Staphylococcus haemolyticus; assay: Antibacterial activity against Staphylococcus haemolyticus assessed as percent susceptible isolates by CLSI M100-S18 method; type: functional
Staphylococcus hominis = assay: Antibacterial activity against Staphylococcus hominis assessed as percent susceptible isolates by CLSI M100-S18 method; type: functional
[20] = tested on: Staphylococcus lugdunensis; assay: Antibacterial activity against Staphylococcus lugdunensis assessed as percent susceptible isolates by CLSI M100-S18 method; type: functional
[21] = tested on: Staphylococcus saprophyticus; assay: Antibacterial activity against Staphylococcus saprophyticus assessed as percent susceptible isolates by CLSI M100-S18 method; type: functional
Staphylococcus warneri = assay: Antibacterial activity against Staphylococcus warneri assessed as percent susceptible isolates by CLSI M100-S18 method; type: functional
Streptococcus agalactiae = assay: Antibacterial activity against Streptococcus agalactiae assessed as percent susceptible isolates by CLSI M100-S18 method; type: functional
[22] = Antibacterial activity against Lancefield Streptococcus sp. 'group C' assessed as percent susceptible isolates by CLSI M100-S18 method; type: functional
Streptococcus sp. = assay: Antibacterial activity against Lancefield Streptococcus sp. group F assessed as percent susceptible isolates by CLSI M100-S18 method; type: functional
[23] = Antibacterial activity against Lancefield Streptococcus sp. 'group G' assessed as percent susceptible isolates by CLSI M100-S18 method; type: functional
Streptococcus pyogenes = assay: Antibacterial activity against Streptococcus pyogenes assessed as percent susceptible isolates by CLSI M100-S18 method; type: functional
Citrobacter koseri [24] = assay: Antibacterial activity against Citrobacter koseri assessed as percent susceptible isolates by CLSI M7-A7 method; type: functional
Klebsiella oxytoca [25] = assay: Antibacterial activity against Klebsiella oxytoca assessed as percent susceptible isolates by CLSI M7-A7 method; type: functional
Morganella morganii [26] = assay: Antibacterial activity against Morganella morganii assessed as percent susceptible isolates by CLSI M7-A7 method; type: functional
[27] = tested on: Staphylococcus epidermidis
[28] = tested on: Staphylococcus epidermidis; remark: listed apart in the source
Clostridium perfringens [29] = tested on: Clostridium perfringens

With `COc1c(N2CCNC(C)C2)c(F)cc2c(=O)c(C(=O)O)cn(C3CC3)c12` (stereo not drawn) [GATIFLOXACIN] the MIC50 (Citrobacter koseri [1]) was 0.015 µg/mL (≈ 0.04 µM), the MIC90 (Citrobacter koseri [1]) was 0.12 µg/mL (≈ 0.32 µM) and the MIC50 (Klebsiella oxytoca [2]) was 0.03 µg/mL (≈ 0.0799 µM). The MIC90 (Klebsiella oxytoca [2]) was 0.5 µg/mL (≈ 1.33 µM), the MIC50 (Legionella pneumophila) was 1 µg/mL (≈ 2.66 µM) and the MIC90 (Legionella pneumophila) was 2 µg/mL (≈ 5.33 µM). For the same compound, the MIC50 (Moraxella catarrhalis) was 0.25 µg/mL (≈ 0.666 µM), the MIC90 (Moraxella catarrhalis) was 0.25 µg/mL (≈ 0.666 µM) and the MIC50 (Morganella morganii [3]) was 0.12 µg/mL (≈ 0.32 µM). For the same compound, the MIC90 (Morganella morganii [3]) was greater than 8 µg/mL, the MIC50 (Bacteroides fragilis [4]) was 2 µg/mL (≈ 5.33 µM) and the MIC90 (Bacteroides fragilis [4]) was 4 µg/mL (≈ 10.7 µM). For the same compound, the MIC50 (Clostridium perfringens [5]) was 1 µg/mL (≈ 2.66 µM), the MIC90 (Clostridium perfringens [5]) was 1 µg/mL (≈ 2.66 µM) and the MIC50 (Fusobacterium sp. [6]) was 1 µg/mL (≈ 2.66 µM). For the same compound, the MIC90 (Fusobacterium sp. [6]) was 4 µg/mL (≈ 10.7 µM), the MIC50 (Peptostreptococcus sp. [7]) was 2 µg/mL (≈ 5.33 µM) and the MIC90 (Peptostreptococcus sp. [7]) was 4 µg/mL (≈ 10.7 µM). It also gave an MIC50 (Prevotella sp. [8]) of 8 µg/mL (≈ 21.3 µM), an MIC90 (Prevotella sp. [8]) of 16 µg/mL (≈ 42.6 µM) and an MIC (Cutibacterium acnes [9]) of 0.25 µg/mL (≈ 0.666 µM). The MIC50 (Cutibacterium acnes [9]) was 0.25 µg/mL (≈ 0.666 µM), the MIC90 (Cutibacterium acnes [9]) was 0.5 µg/mL (≈ 1.33 µM) and the Activity (Bacteroides fragilis [10]) was “inactive”. The Activity (Fusobacterium sp. [11]) was “inactive”, the Activity (Peptostreptococcus sp. [12]) was “inactive” and the Activity (Prevotella sp. [13]) was “inactive”. For the same compound, the Activity (Cutibacterium acnes [14]) was “inactive”, the Activity (Staphylococcus aureus [15]) was 94.7% and the Activity (Staphylococcus aureus [16]) was 54.5%. It also gave an Activity [17] of 88.9%, an Activity [18] of 83.3% and an Activity [19] of 64.4%. It also gave an Activity (Staphylococcus hominis) of 32%, an Activity [20] of 60% and an Activity [21] of 99%. The Activity (Staphylococcus warneri) was 86%, the Activity (Streptococcus agalactiae) was 100% and the Activity [22] was 100%. For the same compound, the Activity (Streptococcus sp.) was 100%, the Activity [23] was 100% and the Activity (Streptococcus pyogenes) was “<=0.015%”. For the same compound, the Activity (Citrobacter koseri [24]) was 99%, the Activity (Klebsiella oxytoca [25]) was 96% and the Activity (Morganella morganii [26]) was 90.2%. The MIC90 [27] was “inactive”, the MIC90 [28] was “inactive” and the Activity (Clostridium perfringens [29]) was “inactive”.
